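Assay format: 96-well plates, 48-hour exposure. GI50: concentration for 50% inhibition of growth. Definition used: TGI = concentration required for complete inhibition of growth.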
Legend:
Assay in all cases: NCI tumour cell line growth inhibition, 48 h
SNB-19 CNS = test system: SNB-19 CNS
UACC-257 melanoma = test system: UACC-257 melanoma
ACHN renal = test system: ACHN renal
LOX IMVI melanoma = test system: LOX IMVI melanoma
NCI-H23 lung = test system: NCI-H23 lung
OVCAR-5 ovarian = test system: OVCAR-5 ovarian
DU-145 prostate = test system: DU-145 prostate
HL-60(TB) leukemia = test system: HL-60(TB) leukemia
SR leukemia = test system: SR leukemia

SMILES: COc1ccc(CNCCN2C(=O)c3ccc4c5c(ccc(c35)C2=O)C(=O)N(CCNCc2ccc(OC)c(OC)c2OC)C4=O)c(OC)c1OC
- GI50 (SNB-19 CNS): 0.429 µM
- TGI (SNB-19 CNS): 4.13 µM
- GI50 (UACC-257 melanoma): 0.113 µM
- TGI (UACC-257 melanoma): 0.303 µM

SMILES: COc1ccccc1-c1nc[nH]c1-c1ccccc1OC
- TGI (ACHN renal): > 100 µM
- TGI (LOX IMVI melanoma): 41.7 µM
- TGI (NCI-H23 lung): > 100 µM
- TGI (OVCAR-5 ovarian): > 100 µM
- TGI (SNB-19 CNS): > 100 µM
- TGI (UACC-257 melanoma): > 100 µM

SMILES: O=C(/C=C/c1cc2ccccc2[nH]c1=O)c1ccc(O)cc1
- GI50 (ACHN renal): 2.67 µM
- TGI (ACHN renal): 8.86 µM
- GI50 (DU-145 prostate): 4.02 µM
- TGI (DU-145 prostate): 14.3 µM
- GI50 (HL-60(TB) leukemia): 2.66 µM
- TGI (HL-60(TB) leukemia): 6.86 µM
- GI50 (LOX IMVI melanoma): 2.47 µM
- TGI (LOX IMVI melanoma): 12.7 µM
- GI50 (NCI-H23 lung): 3.18 µM
- TGI (NCI-H23 lung): 20 µM
- GI50 (OVCAR-5 ovarian): 3.2 µM
- TGI (OVCAR-5 ovarian): 12.8 µM
- GI50 (SNB-19 CNS): 4.59 µM
- TGI (SNB-19 CNS): 18 µM
- GI50 (UACC-257 melanoma): 3.87 µM
- TGI (UACC-257 melanoma): 16 µM

SMILES: CC(NC(=O)C(NC(=O)C(NC(=O)C(F)(F)F)C(C)C)C(C)C)C(=O)Oc1c(Cl)c(Cl)c(Cl)c(Cl)c1Cl (stereo not drawn)
- TGI (ACHN renal): > 100 µM
- TGI (DU-145 prostate): > 100 µM
- TGI (HL-60(TB) leukemia): > 100 µM
- TGI (LOX IMVI melanoma): > 100 µM
- TGI (NCI-H23 lung): > 100 µM
- TGI (OVCAR-5 ovarian): > 100 µM
- TGI (SNB-19 CNS): > 100 µM
- TGI (SR leukemia): > 100 µM
- TGI (UACC-257 melanoma): > 100 µM

SMILES: Cc1[nH]c(-c2ccccc2)c(O)c1C(=O)OC1CC(C)CCC1C(C)C (stereo not drawn)
- TGI (ACHN renal): 30 µM
- TGI (DU-145 prostate): 29.7 µM
- TGI (HL-60(TB) leukemia): 42.6 µM
- TGI (NCI-H23 lung): 26.6 µM
- TGI (OVCAR-5 ovarian): 27.2 µM
- TGI (SNB-19 CNS): 31.1 µM
- TGI (SR leukemia): 34.7 µM
- TGI (UACC-257 melanoma): 29.5 µM

SMILES: CCOC(=O)C1=C(C)NC(c2ccccc2)=C(C(=O)OCc2ccccc2)C1C#Cc1ccccc1 (stereo not drawn)
- TGI (DU-145 prostate): > 100 µM
- TGI (HL-60(TB) leukemia): > 100 µM
- TGI (LOX IMVI melanoma): > 100 µM
- TGI (NCI-H23 lung): > 100 µM
- TGI (OVCAR-5 ovarian): > 100 µM
- TGI (SNB-19 CNS): > 100 µM
- TGI (SR leukemia): > 100 µM
- TGI (UACC-257 melanoma): > 100 µM

SMILES: COc1cc2ccnc3c2c(c1OC)N(C)C=C3
- TGI (ACHN renal): 46.4 µM
- TGI (DU-145 prostate): > 100 µM
- TGI (LOX IMVI melanoma): 50.4 µM
- TGI (NCI-H23 lung): 47 µM
- TGI (OVCAR-5 ovarian): > 100 µM
- TGI (SNB-19 CNS): 75.9 µM
- TGI (SR leukemia): 64.9 µM
- TGI (UACC-257 melanoma): > 100 µM

SMILES: CCN1CCC(O)(/C=C/c2ccc(Cl)c(Cl)c2)C(C(=O)/C=C/c2ccc(Cl)c(Cl)c2)C1 (stereo not drawn)
- TGI (ACHN renal): 2.43 µM
- TGI (DU-145 prostate): 3.24 µM
- TGI (HL-60(TB) leukemia): 0.905 µM
- TGI (LOX IMVI melanoma): 2.02 µM
- TGI (NCI-H23 lung): 2.06 µM
- TGI (OVCAR-5 ovarian): 2.52 µM
- TGI (SNB-19 CNS): 3.71 µM
- TGI (UACC-257 melanoma): 2.71 µM

SMILES: CCOC(=O)/C(C(N)=O)=C(/O)c1cnccn1
- TGI (ACHN renal): > 100 µM
- TGI (DU-145 prostate): > 100 µM
- TGI (HL-60(TB) leukemia): > 100 µM
- TGI (LOX IMVI melanoma): > 100 µM
- TGI (NCI-H23 lung): > 100 µM
- TGI (OVCAR-5 ovarian): > 100 µM
- TGI (SNB-19 CNS): > 100 µM
- TGI (SR leukemia): > 100 µM
- TGI (UACC-257 melanoma): > 100 µM

SMILES: CN1C(=O)c2c(c3c4ccccc4n(C)c3c3c2c2ccccc2n3C)C1=O
- TGI (ACHN renal): > 100 µM
- TGI (DU-145 prostate): > 100 µM
- TGI (LOX IMVI melanoma): > 100 µM
- TGI (NCI-H23 lung): > 100 µM
- TGI (OVCAR-5 ovarian): > 100 µM
- TGI (SNB-19 CNS): > 100 µM
- TGI (SR leukemia): > 100 µM
- TGI (UACC-257 melanoma): > 100 µM

SMILES: COc1ccc(C2=Nn3c(nc4sc5c(c4c3=O)CCCC5)SC2)cc1
- TGI (ACHN renal): > 100 µM
- TGI (DU-145 prostate): > 100 µM
- TGI (HL-60(TB) leukemia): > 100 µM
- TGI (LOX IMVI melanoma): > 100 µM
- TGI (NCI-H23 lung): > 100 µM
- TGI (OVCAR-5 ovarian): > 100 µM
- TGI (SR leukemia): > 100 µM
- TGI (UACC-257 melanoma): > 100 µM

SMILES: c1ccc(C(OCCN2CC3CCC(C2)N3)c2ccccc2)cc1
- TGI (ACHN renal): > 100 µM
- TGI (DU-145 prostate): > 100 µM
- TGI (HL-60(TB) leukemia): > 100 µM
- TGI (LOX IMVI melanoma): > 100 µM
- TGI (NCI-H23 lung): > 100 µM
- TGI (OVCAR-5 ovarian): > 100 µM
- TGI (SNB-19 CNS): > 100 µM
- TGI (SR leukemia): > 100 µM
- TGI (UACC-257 melanoma): 49 µM

SMILES: Cn1c(=Nc2ccccc2[N+](=O)[O-])sc2ccccc21
- TGI (ACHN renal): > 100 µM
- TGI (DU-145 prostate): > 100 µM
- TGI (HL-60(TB) leukemia): > 100 µM
- TGI (LOX IMVI melanoma): > 100 µM
- TGI (NCI-H23 lung): > 100 µM
- TGI (OVCAR-5 ovarian): > 100 µM
- TGI (SNB-19 CNS): > 100 µM
- TGI (SR leukemia): > 100 µM
- TGI (UACC-257 melanoma): > 100 µM

SMILES: CCc1c[n+]2c(cc1C1=CN3c4ccccc4[C@]45CCN6C/C(=C/CO)[C@H](C[C@H]64)[C@@H]([C@@H]1O)[C@H]35)-c1[nH]c3ccccc3c1CC2
- TGI (ACHN renal): > 50 µM
- TGI (DU-145 prostate): > 50 µM
- TGI (HL-60(TB) leukemia): > 50 µM
- TGI (LOX IMVI melanoma): > 50 µM
- TGI (NCI-H23 lung): > 50 µM
- TGI (OVCAR-5 ovarian): > 50 µM
- TGI (SNB-19 CNS): > 50 µM
- TGI (SR leukemia): > 50 µM
- TGI (UACC-257 melanoma): > 50 µM

SMILES: CCCCCCCCC/C=C1/CC(CO)(COC(=O)C2CCCCC2)OC1=O (stereo not drawn)
- TGI (ACHN renal): > 100 µM
- TGI (DU-145 prostate): > 100 µM
- TGI (LOX IMVI melanoma): > 100 µM
- TGI (NCI-H23 lung): > 100 µM
- TGI (OVCAR-5 ovarian): > 100 µM
- TGI (SNB-19 CNS): > 100 µM
- TGI (SR leukemia): > 100 µM
- TGI (UACC-257 melanoma): > 100 µM

SMILES: Nc1nc(Cl)cc(OCC2(CO)CCCCC2)n1
- TGI (ACHN renal): > 100 µM
- TGI (DU-145 prostate): > 100 µM
- TGI (HL-60(TB) leukemia): > 100 µM
- TGI (LOX IMVI melanoma): > 100 µM
- TGI (NCI-H23 lung): > 100 µM
- TGI (OVCAR-5 ovarian): > 100 µM
- TGI (SNB-19 CNS): > 100 µM
- TGI (SR leukemia): > 100 µM
- TGI (UACC-257 melanoma): > 100 µM

SMILES: COc1cc2c(cc1OC)C/C(=N\O)c1cc(OC)c(OC)cc1/C=C\2
- TGI (ACHN renal): > 100 µM
- TGI (DU-145 prostate): > 64 µM
- TGI (HL-60(TB) leukemia): 19.5 µM
- TGI (LOX IMVI melanoma): 25.6 µM
- TGI (NCI-H23 lung): > 100 µM
- TGI (OVCAR-5 ovarian): > 55.3 µM
- TGI (SNB-19 CNS): > 65.5 µM
- TGI (SR leukemia): > 50.8 µM
- TGI (UACC-257 melanoma): > 48.8 µM

SMILES: CCOC(=O)C(NS(=O)(=O)c1ccccc1)(C(F)(F)F)P(=O)(OCC(C)C)OCC(C)C (stereo not drawn)
- TGI (ACHN renal): > 100 µM
- TGI (DU-145 prostate): > 100 µM
- TGI (HL-60(TB) leukemia): > 100 µM
- TGI (LOX IMVI melanoma): > 100 µM
- TGI (NCI-H23 lung): > 100 µM
- TGI (OVCAR-5 ovarian): > 100 µM
- TGI (SNB-19 CNS): > 100 µM
- TGI (SR leukemia): > 100 µM
- TGI (UACC-257 melanoma): > 100 µM

SMILES: O=C(O)Cn1cnc2c(=O)[nH]c(Nc3ccccc3)nc21
- TGI (ACHN renal): > 100 µM
- TGI (DU-145 prostate): > 100 µM
- TGI (LOX IMVI melanoma): > 100 µM
- TGI (NCI-H23 lung): > 100 µM
- TGI (OVCAR-5 ovarian): > 100 µM
- TGI (SNB-19 CNS): > 100 µM
- TGI (SR leukemia): > 100 µM
- TGI (UACC-257 melanoma): > 100 µM

SMILES: O=C(N/N=C/c1ccc(O)cc1)NNCCO
- TGI (DU-145 prostate): > 100 µM
- TGI (HL-60(TB) leukemia): > 100 µM
- TGI (NCI-H23 lung): > 100 µM
- TGI (OVCAR-5 ovarian): > 100 µM
- TGI (SNB-19 CNS): > 100 µM
- TGI (SR leukemia): > 100 µM
- TGI (UACC-257 melanoma): > 100 µM

SMILES: CCOP(=O)(OCC)C(Cc1cn(S(=O)(=O)c2ccc(C)cc2)cn1)C(=O)O (stereo not drawn)
- TGI (ACHN renal): > 100 µM
- TGI (DU-145 prostate): > 100 µM
- TGI (HL-60(TB) leukemia): > 100 µM
- TGI (LOX IMVI melanoma): > 100 µM
- TGI (NCI-H23 lung): > 100 µM
- TGI (OVCAR-5 ovarian): > 100 µM
- TGI (SNB-19 CNS): > 100 µM
- TGI (SR leukemia): > 100 µM

SMILES: CN(CCCNC(=O)c1[nH]nc2c1ccc1ccccc12)CCCNC(=O)c1[nH]nc2c1ccc1ccccc12
- TGI (ACHN renal): 31.4 µM
- TGI (DU-145 prostate): 31.8 µM
- TGI (HL-60(TB) leukemia): 10.4 µM
- TGI (LOX IMVI melanoma): 25.9 µM
- TGI (NCI-H23 lung): 33 µM
- TGI (OVCAR-5 ovarian): 37.2 µM
- TGI (SNB-19 CNS): 37.6 µM
- TGI (UACC-257 melanoma): 16.9 µM

SMILES: C[C@]12CC[C@@H]3c4cc(C=O)c(OCc5ccccc5)cc4CC[C@H]3[C@@H]1CCC2OCc1ccccc1 (stereo partly drawn)
- TGI (ACHN renal): > 100 µM
- TGI (DU-145 prostate): > 100 µM
- TGI (HL-60(TB) leukemia): > 100 µM
- TGI (LOX IMVI melanoma): > 100 µM
- TGI (NCI-H23 lung): > 100 µM
- TGI (OVCAR-5 ovarian): > 100 µM
- TGI (SR leukemia): > 100 µM
- TGI (UACC-257 melanoma): > 100 µM

From PubChem BioAssay (NCI)
